Test systems include A549 NSCLC; ACHN renal; COLO 205 colon; HOP-92 NSCLC; HS 578T breast; HT29 colon; IGROV1 ovarian; KM12 colon; NCI/ADR-RES ovarian; OVCAR-3 ovarian; OVCAR-8 ovarian; PC-3 prostate; SF-268 CNS; SK-MEL-28 melanoma; SK-MEL-5 melanoma; SNB-19 CNS; SR leukemia; T-47D breast; UO-31 renal; BT-549 breast.
Holding throughout (assay): NCI anticancer screen, dose series, 48 h

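All cell lines were grown in 96-well plates and treated with compound for 48 hours. TGI: concentration producing complete growth inhibition.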

In the case of `N#CC1=C(N2CCCC2)NC(=O)CC1=O`, the TGI in the assay with A549 NSCLC, with ACHN renal, in the assay on COLO 205 colon, with HOP-92 NSCLC, in the assay on HS 578T breast and in the assay on HT29 colon was > 100 µM in each case. For the same compound, the TGI with IGROV1 ovarian, with KM12 colon, in the assay with NCI/ADR-RES ovarian, in the assay on OVCAR-3 ovarian, in the assay with OVCAR-8 ovarian and in the assay on PC-3 prostate was > 100 µM throughout. For the same compound, the TGI in the assay on SF-268 CNS, in the assay with SK-MEL-28 melanoma, in the assay on SK-MEL-5 melanoma, with SNB-19 CNS, in the assay with SR leukemia and in the assay with T-47D breast was > 100 µM throughout. For the same compound, the TGI with UO-31 renal is > 100 µM.
Consider `CCOC(=O)C(Cl)(NC(=O)c1ccc(F)cc1)C(F)(F)F` (stereo not drawn), for which the TGI with A549 NSCLC, in the assay on ACHN renal, in the assay with COLO 205 colon, in the assay with HOP-92 NSCLC, in the assay on HS 578T breast and in the assay with HT29 colon was > 100 µM in each case. Moreover, the TGI in the assay with IGROV1 ovarian, in the assay on KM12 colon, with NCI/ADR-RES ovarian, in the assay with OVCAR-3 ovarian, with OVCAR-8 ovarian and in the assay with PC-3 prostate was > 100 µM in each case. Besides, the TGI with SF-268 CNS, in the assay with SK-MEL-28 melanoma, in the assay with SK-MEL-5 melanoma, in the assay with SNB-19 CNS, in the assay on SR leukemia and in the assay on T-47D breast was > 100 µM throughout. Moreover, the TGI in the assay on UO-31 renal is > 100 µM.
As to `COc1ccc2c(c1)OCc1c-2oc2ccccc2c1=O`, the TGI with A549 NSCLC, in the assay on ACHN renal, with BT-549 breast, with COLO 205 colon, in the assay with HOP-92 NSCLC and in the assay on HT29 colon was > 100 µM throughout. Moreover, the TGI with IGROV1 ovarian, with KM12 colon, in the assay on NCI/ADR-RES ovarian, in the assay with OVCAR-3 ovarian, in the assay with OVCAR-8 ovarian and in the assay on PC-3 prostate was > 100 µM each time. Besides, the TGI in the assay with SF-268 CNS, in the assay with SK-MEL-5 melanoma, in the assay with SR leukemia and in the assay with UO-31 renal was > 100 µM in each case.
As to `CC1CN=C(Nc2ccc(S(N)(=O)=O)cc2)S1` (stereo not drawn), the TGI in the assay on A549 NSCLC, with ACHN renal, in the assay with COLO 205 colon, in the assay with HOP-92 NSCLC, in the assay on HS 578T breast and in the assay with HT29 colon was > 100 µM throughout. Further, the TGI was > 100 µM in the assay with IGROV1 ovarian; > 100 µM in the assay with KM12 colon; > 100 µM with NCI/ADR-RES ovarian; > 100 µM in the assay with OVCAR-3 ovarian; > 100 µM in the assay on OVCAR-8 ovarian; > 10 µM in the assay with PC-3 prostate. Besides, the TGI in the assay on SF-268 CNS, with SK-MEL-28 melanoma, in the assay with SK-MEL-5 melanoma, in the assay on SNB-19 CNS, with SR leukemia and in the assay with T-47D breast was > 100 µM each time. Moreover, the TGI in the assay on UO-31 renal is > 100 µM.
Turning to `CN1CCC(OC(=O)Oc2ccccc2)(c2ccccc2)CC1`, the TGI in the assay on A549 NSCLC is > 100 µM; with ACHN renal, > 100 µM; in the assay on COLO 205 colon, 25.8 µM; in the assay with HS 578T breast, 54.3 µM; in the assay with HT29 colon it was 26 µM; in the assay on IGROV1 ovarian, 64.5 µM. In addition, the TGI in the assay on KM12 colon was 37.5 µM; in the assay with NCI/ADR-RES ovarian it was 39.2 µM; in the assay with OVCAR-3 ovarian, > 100 µM; in the assay on OVCAR-8 ovarian it was 33 µM; with PC-3 prostate, 45.8 µM; in the assay on SF-268 CNS it was > 100 µM. The TGI was determined as 41.7 µM in the assay with SK-MEL-28 melanoma; 34.2 µM in the assay on SK-MEL-5 melanoma; 69.2 µM with SNB-19 CNS; 42.6 µM in the assay with SR leukemia; 52.1 µM in the assay on T-47D breast; 54.2 µM in the assay on UO-31 renal.
On to `S=C(/N=c1/sc(Nc2ccccc2)nc2sc3c(c12)CCCC3)Nc1ccccc1`, for which the TGI with ACHN renal, with BT-549 breast, in the assay with COLO 205 colon, in the assay on HOP-92 NSCLC, in the assay with HS 578T breast and in the assay on HT29 colon was > 62.5 µM in each case. Further, the TGI in the assay with IGROV1 ovarian, in the assay with KM12 colon, in the assay on OVCAR-3 ovarian, in the assay with PC-3 prostate, in the assay with SF-268 CNS and with SK-MEL-28 melanoma was > 62.5 µM throughout. In addition, the TGI with SK-MEL-5 melanoma, in the assay on SNB-19 CNS, with SR leukemia and in the assay with UO-31 renal was > 62.5 µM throughout.
With `S=C1Cc2c([nH]c3ccccc23)-c2ccccc2N1`, the TGI is > 100 µM with A549 NSCLC; 80.6 µM with ACHN renal; > 100 µM with COLO 205 colon; > 100 µM in the assay with HOP-92 NSCLC; > 100 µM with HS 578T breast; > 100 µM with HT29 colon. For the same compound, the TGI in the assay on IGROV1 ovarian, with KM12 colon, in the assay on NCI/ADR-RES ovarian, with OVCAR-3 ovarian, in the assay with OVCAR-8 ovarian and with PC-3 prostate was > 100 µM in each case. Moreover, the TGI with SF-268 CNS, in the assay with SK-MEL-28 melanoma, with SK-MEL-5 melanoma, in the assay with SNB-19 CNS, with SR leukemia and in the assay on T-47D breast was > 100 µM throughout. Also, the TGI in the assay with UO-31 renal came out at 58.9 µM.
`COc1cc(C2c3cc4c(cc3[C@@H](Nc3ccccc3)C3CO[C@@H](OC)[C@H]23)OCO4)cc(OC)c1O` (stereo partly drawn): the TGI with A549 NSCLC is 12.1 µM; in the assay on ACHN renal, 10.6 µM; with COLO 205 colon, > 25 µM; in the assay on HS 578T breast it was 17.3 µM; in the assay on HT29 colon it was 10.7 µM; in the assay on IGROV1 ovarian, > 25 µM. Further, the TGI with KM12 colon, in the assay with NCI/ADR-RES ovarian, in the assay with OVCAR-8 ovarian, with PC-3 prostate, in the assay on SF-268 CNS and with SK-MEL-28 melanoma was > 25 µM each time. Besides, the TGI with SK-MEL-5 melanoma is > 25 µM; in the assay with SNB-19 CNS, > 25 µM; in the assay on SR leukemia, 22.6 µM; in the assay with T-47D breast, > 25 µM; in the assay on UO-31 renal, 8.03 µM.
`COc1cccc(C2c3cc4c(cc3OC(N3CCCC3)C2C)OCO4)c1` (stereo not drawn): the TGI is > 100 µM with A549 NSCLC; 83.8 µM in the assay on ACHN renal; 36.7 µM in the assay with COLO 205 colon; 12.6 µM in the assay with HOP-92 NSCLC; 34.6 µM with HS 578T breast; 18.4 µM with HT29 colon. Also, the TGI in the assay on IGROV1 ovarian is 38.7 µM; with KM12 colon, 33 µM; in the assay on NCI/ADR-RES ovarian, 33.5 µM; with OVCAR-3 ovarian, 28.6 µM; in the assay on OVCAR-8 ovarian, > 100 µM; in the assay on PC-3 prostate it was 46.9 µM. Moreover, the TGI was 76.8 µM in the assay on SF-268 CNS; 32.9 µM in the assay on SK-MEL-28 melanoma; 18.5 µM with SK-MEL-5 melanoma; 61.4 µM in the assay with SNB-19 CNS; 21.4 µM in the assay on SR leukemia; 70.9 µM with T-47D breast. The same compound had a TGI in the assay on UO-31 renal of 41.4 µM.
Turning to `CCOC(=O)c1c(SC(=O)/C=C/c2ccccc2)n(-c2ccccc2)c(=S)n(-c2ccccc2)c1=O`, the TGI with A549 NSCLC, in the assay on ACHN renal, in the assay on COLO 205 colon, in the assay on HOP-92 NSCLC, in the assay with HS 578T breast and with HT29 colon was > 100 µM throughout. Also, the TGI with IGROV1 ovarian, in the assay on KM12 colon, in the assay with NCI/ADR-RES ovarian, with OVCAR-3 ovarian, in the assay with OVCAR-8 ovarian and in the assay with PC-3 prostate was > 100 µM in each case. The TGI with SF-268 CNS, in the assay on SK-MEL-28 melanoma, with SNB-19 CNS, in the assay with SR leukemia and in the assay on T-47D breast was > 100 µM throughout.
`Cc1ccccc1Nc1cn(COCc2ccccc2)c(=O)[nH]c1=O`: the TGI with A549 NSCLC is > 100 µM; with ACHN renal it was > 100 µM; in the assay with BT-549 breast it was 66.2 µM; in the assay with COLO 205 colon, > 100 µM; in the assay with HOP-92 NSCLC, > 100 µM; with HS 578T breast it was > 100 µM. Further, the TGI in the assay with HT29 colon, in the assay with IGROV1 ovarian, in the assay on KM12 colon, in the assay with NCI/ADR-RES ovarian, in the assay with OVCAR-3 ovarian and in the assay with PC-3 prostate was > 100 µM in each case. Besides, the TGI in the assay with SF-268 CNS, with SK-MEL-28 melanoma, with SK-MEL-5 melanoma, in the assay with SNB-19 CNS and with UO-31 renal was > 100 µM throughout.
As to `O=C1SCC(O)=C1/C=N/Nc1nc2ccccc2o1`, the TGI is 95.4 µM in the assay on A549 NSCLC; > 100 µM with ACHN renal; 81 µM with COLO 205 colon; 81.7 µM in the assay on HOP-92 NSCLC; > 100 µM with HS 578T breast; 83.7 µM in the assay on HT29 colon. Besides, the TGI is > 100 µM in the assay with KM12 colon; 43.3 µM with NCI/ADR-RES ovarian; 65.5 µM with OVCAR-3 ovarian; 46.6 µM in the assay on OVCAR-8 ovarian; 88.6 µM with PC-3 prostate; > 100 µM in the assay on SF-268 CNS. The TGI with SK-MEL-28 melanoma was > 100 µM; in the assay with SK-MEL-5 melanoma it was 63.9 µM; in the assay on SNB-19 CNS, > 100 µM; in the assay on SR leukemia, > 100 µM; in the assay with T-47D breast it was 54.7 µM.

The values above are taken from PubChem BioAssay (NCI).
